# Measurements from patent publication US9427408B2, “Silica-matrix forming compositions, materials formed therefrom, and methods of using the same” (priority 2011, dated 2016).
# Key:
# HFF cells = format: cell-based; conditions: 0.19 and 0.38 M EG, 48 h incubation
# Protocol: (§1) Human foreskin fibroblasts (HFF), and mouse embryonic fibroblasts (MEF) were obtained from the American Type Cell Collection (Manasas, Va.). HFF and MEF cells were cultured in DMEM basal media supplemented with 15% fetal bovine serum (FBS), and 1% penicillin/streptomycin. Cells were incubated in a 5% CO2 atmosphere at 37° C. until they reached 80-90% confluence. Cells were then washed with phosphate buffer saline (PBS) and trypsinized with 0.25% Trypsin-EDTA for 5 min at 37° C. For cytotoxicity measurements and encapsulation experiments, cells were centrifuged at 800 rpm for 5 min. The supernatant was removed and the pelleted cells were suspended in their own growth media at a concentration of about 500,000 cells/ml.
# (§2) Membrane integrity of the encapsulated cells in silica and SPEG gels was measured using a live-dead fluorescence assay containing Hoechst (H) and Propidium Iodide (PI) fluorescent dyes. A Nikon Eclipse T200 microscope (Nikon Instruments Inc., Melville, N.Y.) equipped with 10×, and 20× objectives were used to collect the bright field and fluorescent images.
# (§3) MA of the encapsulated cells was measured with alamar blue (AB) fluorescence. For fluorescence measurements a SpectraMAX Gemini microplate reader (Molecular Devices Inc, Sunnyvale, Calif.) was used. The samples were excited at 540 nm and their emission was measured at 590 nm. LDH assay was performed 24 h after encapsulation of the cells. The assay was performed using a commercially available kit (Roche Applied Science, Indianapolis, Ind.). The levels of extracellular LDH activity were determined using a UV-vis SpectraMAX microplate reader (Molecular Devices, Sunnyvale, Calif.) by absorbance at 492 nm.
# (§4) During the encapsulation process, mammalian cells were exposed to individual and aggregated SNPs in the surrounding solutions as gel formation proceeds. SNPs can be mildly cytotoxic. The toxicity of the encapsulation process was analyzed by incubating mammalian cells in 0.01 and 0.03 M SNP solutions. These were the concentrations used in the gels. After 24 h of incubation in the presence of SNPs, the cell membrane integrity and MA was measured.
# (§5) Another factor for cytotoxicity is the formation of cytotoxic by-products such as EG during the hydrolysis reaction. HFF and MEF cells were incubated with 0.19 and 0.38 M EG to test for cytotoxicity. The concentrations of EG used in these experiments were based on the stoichiometric reaction of 10% (v/v) THEOS assuming a complete reaction. […] FIG. 6 illustrates cytotoxicity of SNPs and EG on: (A) HFF, (B) MEF.
# MEF cells = format: cell-based; conditions: 0.19 and 0.38 M EG, 48 h incubation
# Protocol: as §1, §2, §3, §4, §5
compound,measurement,setting,value
"OCCO [EG, ethylene glycol]",cell membrane damage,HFF cells,did not cause any cell membrane damage
same,effect on MA of the cells,HFF cells,nor had any effects on the MA
same,cell membrane damage,MEF cells,did not cause any cell membrane damage
same,effect on MA of the cells,MEF cells,nor had any effects on the MA
